Like-named read-outs stand apart in the source and are kept apart here.
What was measured:
[1] = system: ELOVL6; conditions: 'in vivo' as printed; cited from earlier work
[2] = biological target: hELOVL3 (Homo sapiens, UniProt Q9HB03); conditions: in vitro; cited from earlier work
[3] = system: HCMV AD169 strain; test: microbe, parasite or virus in culture; format: cell-based, human cytomegalovirus; conditions: for reduction of HCMV viral yield: 96 h post infection; for effect on HCMV replication / yield, in words: concentrations as in the sentence or figure; for decrease in HCMV virus titer: 96 h after infection
[4] = system: ELOVL3; conditions: 'in vivo' as printed; cited from earlier work
[5] = system: MRCS human fibroblasts; test: host cell viability, morphology and toxicity in fibroblasts; conditions: for toxicity on the cells: at the antiviral doses tested; for appearance of cells: 96 h
Description: (§1) Top panels: About 90% confluent MRCS human fibroblasts were treated with the indicated concentrations of triacsin C or the carrier in which the drug was dissolved (DMSO) in the presence of 10% fetal calf serum and photographed 96 h later. Bottom left panel: About 90% confluent MRCS fibroblasts were either mock infected or infected with the AD169 strain of HCMV at a multiplicity of (0.1 pfu/cell). The uninfected or infected cells received DMSO (solvent for the drug) or the drug for 96 h before cells were assayed for viability. Bottom right panel: About 90% confluent MRCS fibroblasts were infected with HCMV at a multiplicity of (0.1 pfu/cell) in the presence of DMSO (0 nM triacsin C) or triacsin C at the indicated concentrations. Infected fibroblasts were maintained in medium containing 10% fetal calf serum. Virus yield in the medium at 96 h after infection was determined by infecting fibrobalsts and assaying IE1 expression by immunofluorescence 24 h later. 96 h after infection, cells were harvested into culture medium and sonicated to release cell-associated virus. Virus yield in the medium was determined by infecting fibroblasts and assaying IE1 expression by immunofluorescence 24 h later.
(§2) The effect of triacsin C on the viability of MRCS human fibroblasts in culture medium containing 10% fetal calf serum was tested. At the time drug was added, cells were about 90% confluent.

[6] = system: late viral protein pUL99; test: HCMV late viral protein expression (pUL99-GFP); format: cell-based, human cytomegalovirus
[7] = system: adenovirus type 5; test: adenovirus replication in fibroblasts; format: cell-based; conditions: for decrease in adenovirus replication / titer: MOI 1, 72 h; for effect on adenovirus replication, in words: indicated amounts of drug
[8] = system: MDCK cells
Description: Bottom panel: Approximately 90% confluent MDCK cells were infected with WSN/33 at a multiplicity of (0.001 pfu/cell) in the presence of PBS (0 mM) or AOAA at the indicated concentrations. Virus yield in the medium at indicated times after infection was determined by standard plaque assay on MDCK cells.
Replication of influenza A (WSN/33 strain) was measured in MDCK cells at a multiplicity of infection of 0.001 particle forming unit per cell.

[9] = system: ACAT; conditions: cited from earlier work
[10] = system: Liquid Droplet; conditions: read-out: Liquid Droplet inhibition IC50; cited from earlier work
[11] = system: Liver ACAT; conditions: cited from earlier work
[12] = mice, oral, 10 mg/kg, 2 hours after treatment; cited from earlier work
[13] = system: lipid droplets in HCMV infected cells; test: lipid droplets by oil red O staining; format: cell-based, human
Source text: A pair of related enzymes that are both required for HCMV replication are ADP-ribosyltransferase 1 and 3 (ART1 and ART3). Inhibition of either of these enzymes led to a marked reduction in HCMV replication, ˜40-fold for ART1 and ˜10-fold for ART3. Without being bound by any particular mechanism, although ADP-ribosyltransfer is not per se a reaction of lipid metabolism, ADP ribosylation plays a key role in regulating lipid storage via targets including the protein CtBP1/BARS. Mono-ADP ribosylation of this protein results in loss of lipid droplets due to a dramatic efflux of fatty acids.
Thus host cell components involved in lipid droplet production and consumption provide antiviral targets. In addition to siRNA against the relevant cellular machinery, other means of inhibiting lipid droplet formation include the compounds spylidone, PF-1052 (a fungal natural product isolated from Phoma species), vermisporin, beauveriolides, phenochalasins, isobisvertinol, K97-0239, and rubimaillin.
Lipid droplet formation and depletion is associated with HCMV infection. At early phase of infection (2-12 hours after infection) lipid droplets are induced within the infected cells and thereafter, a complete loss of lipid droplets is observed (48-72 hours after infection).

[14] = system: influenza A strain WSN/33; test: influenza A replication in fibroblasts; format: cell-based; conditions: for effect on influenza A growth, in words: indicated amounts of drug
[15] = system: HSV-1; test: HSV-1 replication in fibroblasts; format: cell-based, herpes simplex virus type 1; conditions: for effect on HSV-1 growth, in words: indicated amounts of drug
[16] = system: HCV JFH1 strain derivative; test: release of infectious HCV from Huh7.5 cells, TCID50 assay
Description: Huh7.5 cells were infected with a derivative of HCV JFH1 strain (MOI=0.1 TCID50/cell). Infected cells were maintained in medium containing 10% fetal calf serum plus DMSO (0 nM triacsin C) or triacsin C at the indicated concentrations. Media were harvested at 72 h and infectious virus was quantified by standard TCID50 assay on Huh7.5 cells.
Virus yield in the medium at 72 h after infection was determined.
Huh7.5 cells were infected a derivative of HCV JFH1 strain (MOI=0.1 TCID50/cell) Infected cells were maintained in medium containing 10% fetal calf serum plus DMSO (0 μg/ml TOFA) or TOFA at the indicated doses. Media were harvested at 72 h and infectious virus was quantified by standard TCID50 assay on Huh7.5 cells.
Huh7.5 cells which was infected with HCV and treated with indicated amounts of TOFA (FIG. 21).

[17] = system: MRCS human fibroblasts
Description: as §1, §2

[18] = biological target: T1, hELOVL6 (Homo sapiens, UniProt Q9H5J4); conditions: in vitro, cited from earlier work
T1 sequence (Q9H5J4 1-265): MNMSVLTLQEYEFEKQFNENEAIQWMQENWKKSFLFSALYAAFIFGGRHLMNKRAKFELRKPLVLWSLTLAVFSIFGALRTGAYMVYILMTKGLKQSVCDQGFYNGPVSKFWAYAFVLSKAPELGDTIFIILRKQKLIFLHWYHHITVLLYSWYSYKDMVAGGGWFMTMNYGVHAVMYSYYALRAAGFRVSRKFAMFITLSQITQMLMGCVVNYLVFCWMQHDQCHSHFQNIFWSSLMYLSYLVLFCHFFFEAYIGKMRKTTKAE

[19] = system: atherosclerosis; conditions: oral, 10 mg/kg/day, two months, cited from earlier work
[20] = system: triacylglycerol (TG) synthesis; conditions: cited from earlier work
[21] = system: ACSLs; conditions: rat liver cell sonicates; cited from earlier work
[22] = system: cholesterol ester (CE) synthesis; conditions: cited from earlier work
[23] = system: HCMV; test: siRNA screen, infectious yield of HCMV; conditions: enzyme knockdown by siRNA; fibroblasts, HCMV 0.1 pfu/cell, 96 h
Description: To identify host cell enzymes whose inhibition could decrease the production of virus progeny, an siRNA screen was performed to test for roles of specific enzymes involved directly or indirectly in lipid metabolism. The siRNA screen was designed to test for effects of inhibiting specific siRNA targets on the infectious yield of HCMV. The screen was performed in 96-well plates using a portion of an siRNA library purchased from Sigma. Each target was assayed with three different siRNAs.
Also at 96 h after infection, the medium was removed from each well and used to infect fibroblasts in a new 96-well plate, and infectivity was quantified by staining for immunofluorescence and counting IE1-positive cells 24 h later.

Chain of hELOVL3 (Q9HB03 whole entry): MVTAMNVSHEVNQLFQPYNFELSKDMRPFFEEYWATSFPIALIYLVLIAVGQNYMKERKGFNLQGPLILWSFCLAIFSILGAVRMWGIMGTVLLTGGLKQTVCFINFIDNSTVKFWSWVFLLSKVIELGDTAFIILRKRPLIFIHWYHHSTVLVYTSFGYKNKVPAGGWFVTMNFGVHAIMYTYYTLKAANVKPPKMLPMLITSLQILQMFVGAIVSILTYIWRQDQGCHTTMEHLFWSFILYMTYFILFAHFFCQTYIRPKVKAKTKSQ

O=C1Nc2ccc(-c3ccn[nH]3)cc2[C@](CNC(=O)c2ccc(F)cc2)(C(F)(F)F)O1 [(S)-1y]
IC50 [1]: 169 nM
IC50 [2]: ~130 nM
inhibition of HCMV replication ([3]; 25 μM): ~40 fold
inhibition of HCMV replication ([3]; 50 μM): > 1000 fold
IC50 [4]: > 5000 nM
toxicity on the cells [5]: Without inducing any toxicity
HCMV late pUL99 expression, in words [6]: dramatically reduced

NOCC(=O)O [AOAA, aminooxyacetic acid]
decrease in HCMV replication ([3]; 0.5 mM): 100 fold
decrease in adenovirus replication / titer ([7]; 0.5 mM): 20 fold
decrease in adenovirus replication / titer ([7]; 1 mM): 500 fold
host cell toxicity by light microscopy [8]: no evidence of host cell toxicity

CC(C)c1cc(C(C)C)c(CC(=O)NS(=O)(=O)Oc2c(C(C)C)cccc2C(C)C)c(C(C)C)c1 [Avasimibe]
IC50 [9]: 479 nM

CCCCCCCN(Cc1ccc(CCC(C)C)cc1)C(=O)Nc1c(F)cc(F)cc1F [CL-283,546]
IC50 [10]: 35 nM

COc1cccc(C2(CNC(=O)Nc3c(C(C)C)cc(N)cc3C(C)C)CCN(c3ccccc3C)CC2)c1 [Compound 12g]
IC50 [9]: 68 nM

Cc1cc(NC(=O)[C@@H]2Cc3ccc(N(C)C)cc3CN2C(=O)C(C)C)c(C)c(C)c1O [Compound 21]
IC50 [11]: 113 nM

Cc1[nH]n(-c2ccc(OC(F)(F)F)cc2)c(=O)c1C1(C(F)(F)F)C(=O)N(c2ccccc2)C2=C1C(=O)CC(C)(C)C2 (centres unmarked) [Compound 37]
IC50 [2]: ~337 nM
inhibition of HCMV replication ([3]; 35 μM): > 10 fold
HCMV virus yield ([3]; 70 μM): undetectable levels
toxicity on the cells [5]: Without inducing any toxicity
HCMV late pUL99 expression, in words [6]: substantially reduced
liver level [12]: 50 µM
plasma level [12]: 30 µM

N=C(N)NCc1cccc([131I])c1 [MIBG, meta-iodo-benzylguanidine]
inhibition of HCMV replication ([3]; 100 μM, fibroblasts): 13 fold
HCMV-induced accumulation and depletion of lipid droplets ([13]; 100 μM): blocked

CCC(C)[C@@H]1C(=O)/C(=C(/O)[C@@H]2[C@@H]3[C@H](C)C[C@H](C)C[C@@H]3C=C[C@@H]2[C@]2(C)O[C@H]2C)C(=O)N1C (some centres unmarked) [PF-1052]
reduction of HCMV viral yield ([3]; 5 μM): > 50 fold
reduction of HCMV yield, prolonged treatment ([3]; 5 μM, medium replaced daily, 10 days after infection): > 5000 fold
reduction of HCMV viral yield ([3]; 10 μM): > 300 fold
effect on HCMV replication / yield, in words [3]: profoundly inhibits
effect on adenovirus replication, in words [7]: not and not inhibited
host cell toxicity by light microscopy ([5]; 5 and 10 μM): no evidence of host cell toxicity
effect on influenza A growth, in words [14]: substantially inhibited
HCMV late pUL99 expression, in words [6]: markedly reduced
inhibition at 10 µM ([6]; Human betaherpesvirus 5, 10 μM, read-out: inhibition of HCMV late protein synthesis): > 99%
effect on HSV-1 growth, in words [15]: substantially inhibited
inhibition of release of infectious HCV particles ([16]; 5 μM): 10 fold
inhibition of release of infectious HCV particles ([16]; 10 μM): > 100 fold

CCCCCCCCN1CCc2c(C)c(CC(=O)O)c(C)c(NC(=O)C(C)(C)C)c21 [Pactimibe]
IC50 [11]: 312 nM

CCCCn1c(=O)c(NC(=O)Nc2c(C(C)C)cc(N)cc2C(C)C)c(-c2cccc(OCCCO)c2)c2cccnc21 [SMP-797]
IC50 [9]: 31 nM

CC(C)=CCc1c([C@H](O)C2OC2(C)C)ccc2[nH]c3c(c12)C[C@@H]1CC[C@@]2(O)C(C)(C)C(=O)CC[C@]2(C)[C@@]31C (some centres unmarked) [Sespendole]
IC50 [10]: 4000 nM

CCC(C)[C@@H]1C(=O)C2(C[C@@H]3[C@@H]4[C@H](C)C[C@H](C)C[C@@H]4C=C[C@@H]3[C@](C)(O)[C@H]2C)C(=O)N1C (some centres unmarked) [Spylidone]
IC50 [10]: 42000 nM

CC(C)=C[C@H]1O[C@H]2[C@H]3O[C@@]34[C@H](CC[C@@]3(C)[C@@]4(O)CC[C@H]4Cc5c([nH]c6ccccc56)[C@@]43C)O[C@@H]2C(C)(C)O1 [Terpendole C]
IC50 [10]: 2500 nM

CC(=O)Nc1nnc(S(N)(=O)=O)s1 [acetazolamide]
inhibition at 25 µM ([3]; Human betaherpesvirus 5, AD169, Fibroblast, read-out: inhibition of HCMV replication): ~80%

O=C(Nc1ccc(C(F)(F)F)cc1)N1C2CCC1CC(S(=O)(=O)c1ccccc1)C2 (stereo not drawn) [endo-1k]
inhibition of HCMV replication ([3]; 50 μM): ~400 fold
toxicity on the cells [17]: Without inducing any toxicity
HCMV late pUL99 expression, in words [6]: dramatically reduced
IC50 ([18]; read-out: hELOVL6 IC50): ~78 nM

O=C(Nc1ccc(C(F)(F)F)cc1)N1C2CCC1CC(S(=O)(=O)c1ccccn1)C2 (stereo not drawn) [endo-1w]
IC50 ([18]; read-out: hELOVL6 IC50): ~78 nM
IC50 ([18]; read-out: human ELOVL6 IC50): ~6900 nM

COC(=O)c1c2c(c3ccccc3c1O)OC(C)(C)C=C2 [rubimaillin]
decrease in HCMV virus titer ([3]; 5 μM): approximately 85%
reduction of HCMV replication ([3]; 10 μM): > 80%

CCC(C)(C)C(=O)O[C@H]1C[C@@H](C)C=C2C=C[C@H](C)[C@H](CC[C@@H]3C[C@@H](O)CC(=O)O3)[C@H]21 [simvastatin]
decrease in HCMV virus titer ([3]; 5 μM): approximately 90%

CCC/C=C/C/C=C/C=C/C=N/NN=O [triacsin C]
progression of atherosclerosis ([19]; LDLR-/- mice): significantly inhibited
toxicities ([19]; mice): no significant toxicities noted
reduction of yield of infectious HCMV ([3]; 50 nM, presence of serum): > 8 fold
reduction of yield of infectious HCMV, factor ([3]; 250 nM, added with virus, 96 h, 10% serum): 85
effect on HCMV replication / yield, in words [3]: substantially inhibited
inhibition of HCMV replication ([3]; nanomolar concentrations): > 10 fold
effect on adenovirus replication, in words [7]: not
IC50 [20]: 100 nM
depletion of lipid droplets ([13]; 100 nM): > 90%
lipid droplets by oil red O staining ([13]; 250 nM): no detectable lipid droplets
lipid droplet formation induced by HCMV infection ([13]; HFF cells): reduced lipid droplet formation
IC50 [21]: ~8700 nM
viability of MRC-5 fibroblasts ([5]; 50 nM, presence of serum): without discrenably impacting
appearance of cells ([5]; 100 or 250 nM, 10% fetal calf serum): did not alter the appearance of cells
cell viability ([5]; absence of fetal calf serum, doses up to 10 μM): no discernable impact
cell viability ([5]; doses of ≦500 nM, 10% fetal calf serum): little effect
appearance of cells ([5]; ≦500 nM, 10% fetal calf serum): some cell rounding
effect on influenza A growth, in words [14]: substantially inhibited
inhibition of influenza A replication ([14]; nanomolar concentrations): > 10 fold
effect on HSV-1 growth, in words [15]: substantially inhibited
inhibition of HSV-1 replication ([15]; nanomolar concentrations): > 10 fold
release of infectious HCV particles, in words ([16]; indicated amounts of drug, 72 h): significantly reduced
IC50 [22]: 190 nM

CC(c1cc2ccccc2s1)N(O)C(N)=O (centres unmarked) [zileuton]
reduction of HCMV replication ([3]; 100 μM): ~90%

STX6 (sense CAAGUUGUCAGGGACAUGATT; antisense UCAUGUCCCUGACAACUUGTT; chemistry not given here)
Fold reduction of HCMV replication [23]: 1.92 fold

STX8 (sense GACUACUUCUGGCAUCCUUTT; antisense AAGGAUGCCAGAAGUAGUCTT; chemistry not given here)
Fold reduction of HCMV replication [23]: 1.96 fold

From US9168269B2, “Inhibitors of long and very long chain fatty acid metabolism as broad spectrum anti-virals” (THE TRUSTEES OF PRINCETON UNIVERSITY, priority 2010, dated 2015)
